Data from PubChem BioAssay (NCI).
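Five concentrations, 48 hours, 96-well plates. At the TGI there is no net growth.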

What was measured:
Assay in all cases: NCI tumour cell line growth inhibition, 48 h
786-0 renal = tested on: 786-0 renal
A498 renal = tested on: A498 renal
A549 NSCLC = tested on: A549 NSCLC
ACHN renal = tested on: ACHN renal
CAKI-1 renal = tested on: CAKI-1 renal
CCRF-CEM leukemia = tested on: CCRF-CEM leukemia
COLO 205 colon = tested on: COLO 205 colon
DLD-1 colon = tested on: DLD-1 colon
DMS 114 small cell lung = tested on: DMS 114 small cell lung
DMS 273 small cell lung = tested on: DMS 273 small cell lung
EKVX NSCLC = tested on: EKVX NSCLC
HCC-2998 colon = tested on: HCC-2998 colon
HCT-116 colon = tested on: HCT-116 colon
HCT-15 colon = tested on: HCT-15 colon
HL-60(TB) leukemia = tested on: HL-60(TB) leukemia
HOP-18 NSCLC = tested on: HOP-18 NSCLC
HOP-62 NSCLC = tested on: HOP-62 NSCLC
HOP-92 NSCLC = tested on: HOP-92 NSCLC
HT29 colon = tested on: HT29 colon
IGROV1 ovarian = tested on: IGROV1 ovarian
K-562 leukemia = tested on: K-562 leukemia
KM12 colon = tested on: KM12 colon
KM20L2 colon = tested on: KM20L2 colon
LOX IMVI melanoma = tested on: LOX IMVI melanoma
LXFL 529 NSCLC = tested on: LXFL 529 NSCLC
M14 melanoma = tested on: M14 melanoma
M19-MEL melanoma = tested on: M19-MEL melanoma
MALME-3M melanoma = tested on: MALME-3M melanoma
MOLT-4 leukemia = tested on: MOLT-4 leukemia
NCI-H226 lung = tested on: NCI-H226 lung
NCI-H23 lung = tested on: NCI-H23 lung
NCI-H460 lung = tested on: NCI-H460 lung
OVCAR-3 ovarian = tested on: OVCAR-3 ovarian
OVCAR-5 ovarian = tested on: OVCAR-5 ovarian
OVCAR-8 ovarian = tested on: OVCAR-8 ovarian
SF-268 CNS = tested on: SF-268 CNS
SF-295 CNS = tested on: SF-295 CNS
SF-539 CNS = tested on: SF-539 CNS
SK-MEL-2 melanoma = tested on: SK-MEL-2 melanoma
SK-MEL-28 melanoma = tested on: SK-MEL-28 melanoma
SK-MEL-5 melanoma = tested on: SK-MEL-5 melanoma
SK-OV-3 ovarian = tested on: SK-OV-3 ovarian
SN12C renal = tested on: SN12C renal
SNB-19 CNS = tested on: SNB-19 CNS
SNB-75 CNS = tested on: SNB-75 CNS
SNB-78 CNS = tested on: SNB-78 CNS
SR leukemia = tested on: SR leukemia
SW-620 colon = tested on: SW-620 colon
TK-10 renal = tested on: TK-10 renal
U251 CNS = tested on: U251 CNS
UACC-257 melanoma = tested on: UACC-257 melanoma
UACC-62 melanoma = tested on: UACC-62 melanoma
UO-31 renal = tested on: UO-31 renal
XF 498 CNS = tested on: XF 498 CNS
NCI-H522 lung = tested on: NCI-H522 lung
OVCAR-4 ovarian = tested on: OVCAR-4 ovarian
RPMI-8226 leukemia = tested on: RPMI-8226 leukemia
RXF-631 renal = tested on: RXF-631 renal
RXF 393 renal = tested on: RXF 393 renal

Measured: TGI

COc1cc2c(c(OC)c1OC)-c1[nH]ncc1CC2
not listed: NCI-H522 lung | OVCAR-4 ovarian | RPMI-8226 leukemia | RXF-631 renal | RXF 393 renal
> 100 µM: all other assays above

COc1ccc2c3c1C(=O)CCC3CO2 (stereo unspecified)
not listed: HOP-18 NSCLC | NCI-H226 lung | SNB-75 CNS | SR leukemia | RXF 393 renal
> 100 µM: all other assays above

C=C1CC(CCCl)(c2ccccc2)OC1=O (stereo unspecified)
> 62.2 µM: LOX IMVI melanoma
52.6 µM: SR leukemia
49.2 µM: CCRF-CEM leukemia
56.8 µM: MALME-3M melanoma
34.2 µM: HOP-92 NSCLC
33.2 µM: NCI-H522 lung
> 75.1 µM: UACC-257 melanoma
71 µM: SNB-75 CNS
> 58 µM: COLO 205 colon
31.7 µM: 786-0 renal
42.5 µM: DLD-1 colon
> 62 µM: SF-539 CNS
71.8 µM: OVCAR-3 ovarian
38.6 µM: M14 melanoma
> 72.1 µM: HT29 colon
> 81.8 µM: SNB-78 CNS
39.5 µM: SW-620 colon
> 62.7 µM: SN12C renal
> 59.3 µM: HOP-18 NSCLC
> 53.9 µM: HCT-116 colon
22.2 µM: SK-MEL-28 melanoma
44.8 µM: HL-60(TB) leukemia
> 62.8 µM: RXF-631 renal
> 56.3 µM: ACHN renal
45.4 µM: LXFL 529 NSCLC
47.7 µM: RXF 393 renal
49.9 µM: MOLT-4 leukemia
39.2 µM: HCT-15 colon
> 63.2 µM: DMS 114 small cell lung
> 90.5 µM: SF-268 CNS
> 54.9 µM: M19-MEL melanoma
71.5 µM: RPMI-8226 leukemia
> 96.7 µM: K-562 leukemia
> 63.1 µM: EKVX NSCLC
> 77.7 µM: TK-10 renal
not listed: CAKI-1 renal
> 100 µM: all other assays above
